Two molecules from patent US20210069198A1 (HANYI BIO-TECHNOLOGY (BEIJING) CO., LTD., priority 2017, published 2021) can be followed below.

This assay concerns rat anxiety behavior induced by high-dose intake of caffeine. The assay can be described thus: Elevated plus-maze test, Test 1: CBD against caffeine-induced anxiety behavior. The format is in vivo, wistar rats. As to the method:
Test Animals: 50 SPF male wistar rats (180-200 g). Feeding Conditions: SPF animal houses, free feeding, 12 h light/12 h darkness.
Each CBD administration group was also intragastrically administrated with a corresponding dose of a CBD soybean oil solution at the same time, and then an elevated plus-maze test was conducted within 30 minutes after administration.
Elevated Plus-maze (EMP) Test: A maze was cross-shaped and consists of 2 open arms (OAs), two closed arms (CAs) and a central platform. The maze was fixed on a support, 50 cm above the ground. A camera was placed above the central platform. The behaviors of rats were recorded and analyzed through a computer. The test was conducted in a quiet shaded condition. Before the test, the rats to be tested were placed in one rat cage. After freely exploring for 5 minutes, the rats were quickly placed on the central platform of the EMP. The observation test was started immediately after release. Each rat was tested for five minutes. After each rat was tested, the maze was thoroughly cleaned with a towel dipped in clean water and low-concentration ethanol. After the ethanol volatilizes and diffuses, the test on the next rat began.
(1) Open arm entry (OE): the number of entries into any open arm was based on the fact that four paws of each rat were located within the arms, and when any paw was completely withdrawn from the arms halfway, the current entry event was deemed as being completed.
(2) Open arm time (OT): it was measured in second.
(3) Closed arm entry (CE): the number of entries into any closed arm, which was determined based on the same standard as OE.
(4) Closed arm time (CT): it was measured in second.
(5) Calculation of the proportion of the number of entries into the open arm (OE %): namely, OE/(OE+CE)×100%.
(6) Proportion of residence time in the open arms (OT %): namely, OT/(OT+CT)×100%. OE % and OT % were used as indexes for evaluating the anxiety state of rats.
The data was expressed with x±s. One-way analysis of variance (one way ANOVA) was used to compare multi-sample means, and t test was used for inter-group comparison.

Setting [1] is: CBD 1 mg/kg intragastric together with 60 mg/kg caffeine.
Setting [2] is: CBD 10 mg/kg intragastric together with 60 mg/kg caffeine.
Where [3] appears, read: CBD 100 mg/kg intragastric together with 60 mg/kg caffeine.
Where [4] appears, read: caffeine model group, 60 mg/kg caffeine intragastric, no CBD.

SMILES strings stand for the structures.

Consider `C=C(C)[C@@H]1CCC(C)=C[C@H]1c1c(O)cc(CCCCC)cc1O` [CBD, Cannabidiol], for which, for the setting “CBD 1 mg/kg in soybean oil intragastric together with 60 mg/kg caffeine”, the “OE (open arm entry)” value is 3.2 ± 0.45 times. Also, under setting [1], the “CE (closed arm entry)” value is given as 7.0 ± 0.92 times, the “CT (closed arm time)” value turned out to be 244 ± 5.14 s, the “OE % (proportion of entries into the open arm)” value (“OE %” for short) worked out at 31.37% and the “OT % (proportion of residence time in the open arms)” value (from here on “OT %”) is reported as 19.24%. Moreover, under setting [1], the “OT (open arm time)” value turned out to be 58.1 ± 3.30 s. Moreover, under setting [2], the “CE (closed arm entry)” value is reported as 5.3 ± 1.07 times, the “CT (closed arm time)” value is given as 214 ± 4.01 s, the “OE %” value worked out at 47.52% and the “OE (open arm entry)” value is 4.8 ± 0.91 times. For the same molecule, under setting [2], the “OT %” value came to 28.43% and the “OT (open arm time)” value worked out at 85 ± 2.07 s. For the same molecule, under setting [3], the “CE (closed arm entry)” value is 4.5 ± 0.91 times, the “CT (closed arm time)” value is reported as 201 ± 3.05 s, the “OE %” value is on record as 54.00% and the “OE (open arm entry)” value turned out to be 5.4 ± 0.25 times. Under setting [3], the “OT %” value is given as 33.22% and the “OT (open arm time)” value was 100 ± 1.32 s. Where the note is “CBD 1-100 mg/kg intragastric together with 60 mg/kg caffeine”, the “effect on the anxiety behavior of rats (in words)” value was “significant effect on inhibiting the anxiety behavior”.
With `Cn1c(=O)c2c(ncn2C)n(C)c1=O` [Caffeine], under setting [4], the “CE (closed arm entry)” value turned out to be 7.8 ± 0.11 times, the “CT (closed arm time)” value came out at 253 ± 5.09 s, the “OE %” value is 21.21% and the “OT (open arm time)” value is 42.9 ± 1.89 s. The “OE (open arm entry)” value (caffeine model group, 60 mg/kg caffeine saline solution intragastric, no CBD, EPM within 30 min, 5 min test) was determined as 2.1 ± 0.78 times.
